Measured values: PMC13672995, “NCR13 peptide protects soybean against Cercospora sojina using multi-faceted modes of action and additive interaction with chemical fungicides” (Journal of Experimental Botany, 2025)
Where no end group is shown, it is not given here.

Columns and labels:
[1] = test system: C. sojina conidia; experiment: ROS measurement with H2DCFDA; format: cell-based, Cercospora sojina; conditions: 1.5 μM peptide, 15 µM H2DCFDA
Protocol: The reactive oxygen species (ROS) indicator dye 2′,7′-dichlorodihydrofluorescein diacetate (H2DCFDA) was used to evaluate ROS induction in C. sojina cells. Cercospora sojina conidia (∼1×10^5 conidia ml^−1) in SFM at various concentrations of iron (FeSO4) were mixed with 15 µM H2DCFDA amd 1.5 µM NCR13_PFV1, and the fluorescence measurements were taken in a Tecan plate reader M200 PRO at excitation and emission wavelengths of 485 nm and 535 nm, respectively, every 30 min for 15 h. ROS induction in C. sojina was visualized using time-lapse confocal microscopy (×63 water immersion objective lens, HC PL Apochromat CS2). The C. sojina conidia grown for 4–5 h in SFM at various concentrations of iron were treated with 15 µM H2DCFDA and 1.5 µM DyLight550-NCR13_PFV1 followed by acquisition of z-stacks using a Leica SP8-X confocal microscope. The excitation and emission wavelengths of DyLight550-NCR13_PFV1 and H2DCFDA were 560 nm, 575–650 nm, and 485 nm, 500–540 nm, respectively.

[2] = test system: C. sojina QoI fungicide-resistant isolate Cs350; format: cell-based, Cercospora sojina
Protocol: (§1) In vitro antifungal activity of AFPs and QoI fungicides was determined using 96-well plate assays as described ([Velivelli et al., 2020]) with slight modifications. Briefly, 2- to 3-week-old C. sojina was used to make a conidial suspension in 2× SFM at the final concentration of ∼10^5 conidia ml^−1. Simultaneously, peptide dilutions (in water) at various concentrations were made. Fungicides were dissolved in 50% acetone and 50% water to make a stock solution of 500 µM, and serial dilutions were made in water as needed. The peptide–conidia or the fungicide–conidia mixture at the ratio of 1:1 (45 µl:45 µl) was added in a 96-well plate and incubated at room temperature for 48 h, after which MICs of the peptides/fungicides were calculated based on microscopy as well as the resazurin cell viability assay ([Velivelli et al., 2020]).

[3] = test system: protein translation in C. sojina Cs350 germlings; experiment: In vivo protein translation inhibition assay (puromycin labeling); format: cell-based, Cercospora sojina; conditions: germlings treated 2 h at 6 µM and 12 µM, puromycin 1 mM 3 h; n=3
Protocol: To assess the translation inhibition of NCR13_PFV1 in C. sojina Cs350, we adapted a recently established puromycin labeling protocol in B. cinerea with minor modifications ([Godwin and Shah, 2025]). Cercospora sojina spores at a concentration of ∼10^5 ml^–1 were inoculated in SFM and cultured for 18 h. The germlings were then treated with NCR13_PFV1 (6 µM and 12 µM) or cycloheximide (50 µg ml^–1) (positive control) for 2 h, followed by the addition of puromycin (1 mM) and incubation for 3 h at 28 °C. After incubation, the germlings were washed three times with sterile water. Total proteins were extracted from germlings using lysis buffer (100 mM HEPES, 5 mM EDTA, 0.1% Triton-X 100, and yeast/fungal protease inhibitor cocktail) and the concentration was estimated using the Pierce BCA Protein Assay Kit (Thermo Scientific). Equal amounts (10 µg) of fungal protein were separated on a 4–20% mini-PROTEAN TGX stain-free protein gel (Bio-Rad, Cat No: 4568094). Western blot analysis was performed using an anti-puromycin antibody (Cell Signaling Technology, Cat No: 40939S), and signal intensities were quantified using Fiji ([Schindelin et al., 2012]).

[4] = test system: soybean cv. Blackhawk plants; conditions: 48 µM spray
Protocol: To test the potential phytotoxicity of NCR13_PFV1 spray on soybean plants, 48 µM NCR13_PFV1 or water was first sprayed on 4-week-old soybean cv. Blackhawk plants (2 ml per plant) followed by biweekly sprays at 5 ml per plant until plants were 10 weeks old. When plants reached 12 weeks, photographs were taken for phenotypic analysis and the plants were allowed to mature. Soybean pods were harvested when the plants were all dry and mature, and the number of pods, 100 seed weight, and total seed weight were determined. At least four plants per treatment were tested.

[5] = test system: fungicide-sensitive and -resistant isolates of C. sojina; experiment: In vitro antifungal activity assay (MIC stated across isolates); format: cell-based, Cercospora sojina; conditions: range over Cs320 and Cs350; 48 h
Protocol: as §1

[6] = test system: B. cinerea; conditions: ref Godwin et al., 2024; cited from earlier work
Source text: The cysteine-rich defensins are the best characterized class of plant AFPs for their antifungal activity and multi-faceted MoAs. Many fungal pathogens internalize defensins and defensin-derived peptides in vitro, making them promising candidates for development as bio-fungicides to protect crops. For example, a well-characterized plant defensin MtDef4 and the 17 amino acid γ-core peptide GMA4CG_V6 peptide derived from this defensin are internalized by the necrotrophic pathogen Botrytis cinerea in vitro and robustly reduce gray mold symptoms when sprayed on tomato plants ([Tetorya et al., 2023] ...

[7] = Peroxidase assay (TMB substrate); format: biochemical; conditions: heme 5 µM, peptide 5 µM, absorption at 370 nm and 652 nm
Protocol: A Pierce TMB substrate kit (Thermo Scientific) was used to measure the peroxidase activity of heme. In a transparent 96-well plate, 50 µl of TMB substrate and 50 µl of […] were added followed by addition of heme (5 µM) or peptides plus heme (5 µM each). The reaction progression was measured in the Tecan plate reader, by recording UV-vis absorption values at 370 nm and 652 nm for every minute up to 1 h.

[8] = test system: B. cinerea; experiment: In vitro antifungal activity against B. cinerea; format: cell-based, Botrytis cinerea
[9] = test system: C. sojina QoI fungicide-sensitive isolate Cs320; experiment: microbe, parasite or virus in culture; format: cell-based, Cercospora sojina; conditions: SFM, ~10^5 conidia ml−1, room temperature, 48 h; resazurin cell viability assay and microscopy
Protocol: as §1

Sequence: TKPCQSDKDCKKFACRKPKVPKCINGFCKCVR (disulfide (positions not given here)) [NCR13_PFV1, chickpea nodule-specific cysteine-rich 32 amino acid peptide, disulfide cross-linking variant 1, expressed in Pichia pastoris]
- ROS induction [1]: accumulates ROS
- ROS level over time at iron >20 μM ([1]; read every 30 min for 15 h): did not increase with time
- MIC in SFM without iron ([2]; 0 μM FeSO4, 2 d): 0.75 µM
- change of MIC with calcium supplementation ([2]; CaCl2, up to 20 μM): No change in MIC
- MIC in SFM with ≥7.5 μM iron ([2]; FeSO4 up to 60 μM, 2 d): 3 µM
- change of MIC with manganese supplementation ([2]; MnSO4, various concentrations): No change in MIC
- MIC (μM) against C. sojina, Fungicide resistant, Cs350 ([2]; SFM, ~10^5 conidia ml−1, room temperature, 48 h, resazurin cell viability assay and microscopy): 1.5 µM
- change of MIC with zinc supplementation ([2]; ZnSO4, various concentrations): No change in MIC
- concentration from which protein translation inhibition was observed [3]: 6 µM
- morphology of sprayed plants (growth rate, height, leaf color) compared with water ([4]; bi-weekly from the fourth to the 10th week, at least four plants): No morphological difference
- number of pods, 100 seed weight, total seed yield compared with water ([4]; at maturity, Student’s t-test): no significant differences
- MIC against fungicide-sensitive and -resistant isolates of C. sojina [5]: 0.75 to 1.5 µM
- fold more potent antifungal activity than NCR13_PFV2 against B. cinerea [6]: 2 fold
- peroxidase activity of heme and FeSO4 in the presence of peptide [7]: not reduced or stopped
- fold increase in MIC against B. cinerea with increasing iron ([8]; iron from 5 µM to 30 μM): 4 fold
- MIC against B. cinerea at low iron ([8]; medium with 5 µM iron): 0.375 µM
- MIC against B. cinerea at high iron ([8]; medium with 30 μM iron): 1.5 µM
- MIC (μM) against C. sojina isolates, Fungicide sensitive, Cs320 [9]: 0.75 µM
